Experimental data reported in ChEMBL document CHEMBL1909046, “DrugMatrix in vitro pharmacology data”.
Where a SMILES comes first, the peptide text is derived from it. Bridges are numbered along the chain shown (N, C = ends). [ ]: non-standard residue; d: D form. The star is where a group is joined. Ileψ(thiazoline)Cys = CC[C@H](C)[C@H](N)C1=N[C@H](C(=O)*)CS1; dOrn = NCCC[C@@H](N)C(=O)O

What was measured:
[1] = DRUGMATRIX: Calcium Channel Type L, Phenylalkylamine radioligand binding (ligand: [3H] (-)-Desmethoxyverapamil (D-888)); assay type: cell membranes, Rattus norvegicus, Wistar, Brain, Membrane; details: Not Active = under 50% inhibition at 10 µM
Melanocortin receptor 4 = Melanocortin receptor 4 (Homo sapiens, UniProt P32245); assay type: cell membranes, Membrane; details: hek293; also: in other assays of this panel Not Active means under 50% inhibition at 10 µM
Sequence of Melanocortin receptor 4 (P32245 whole entry): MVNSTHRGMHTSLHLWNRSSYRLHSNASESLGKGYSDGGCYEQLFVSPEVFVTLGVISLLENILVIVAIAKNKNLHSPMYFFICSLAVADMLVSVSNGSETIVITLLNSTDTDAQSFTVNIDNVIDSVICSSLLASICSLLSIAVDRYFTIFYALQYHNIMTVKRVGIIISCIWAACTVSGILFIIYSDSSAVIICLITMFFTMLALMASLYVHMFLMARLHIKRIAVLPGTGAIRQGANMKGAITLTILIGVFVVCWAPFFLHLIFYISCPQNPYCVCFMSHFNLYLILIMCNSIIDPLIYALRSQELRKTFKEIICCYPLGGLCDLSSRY

Vasopressin V1a receptor = Vasopressin V1a receptor (Homo sapiens, UniProt P37288); assay type: cell membranes, Membrane; details: hek293; also: in other assays of this panel Not Active means under 50% inhibition at 10 µM
Sequence of Vasopressin V1a receptor (P37288 whole entry): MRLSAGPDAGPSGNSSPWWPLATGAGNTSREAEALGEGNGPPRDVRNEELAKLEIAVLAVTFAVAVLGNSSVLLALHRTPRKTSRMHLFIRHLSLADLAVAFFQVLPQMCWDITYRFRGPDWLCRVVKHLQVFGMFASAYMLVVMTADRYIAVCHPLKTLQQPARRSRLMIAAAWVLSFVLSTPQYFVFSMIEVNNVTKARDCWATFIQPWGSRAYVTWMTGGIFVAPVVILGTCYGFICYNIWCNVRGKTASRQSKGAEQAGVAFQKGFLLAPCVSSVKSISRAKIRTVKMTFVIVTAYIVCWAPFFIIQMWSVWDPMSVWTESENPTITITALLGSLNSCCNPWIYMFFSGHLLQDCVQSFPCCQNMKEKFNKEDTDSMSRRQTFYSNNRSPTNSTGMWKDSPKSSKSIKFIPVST

[2] = DRUGMATRIX: Potassium Channel [KATP] radioligand binding (ligand: [3H] Glyburide); assay type: cell membranes, Membrane; details: hit-t15; Not Active = under 50% inhibition at 10 µM
[3] = target: Matrix metalloproteinase-9 (Homo sapiens, UniProt P14780); assay type: cell-based;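 also: inhibition of isolated MMP-9 enzyme activity toward a synthetic peptide substrate, from the DrugMatrix protease screening panel; in other assays of this panel Not Active means under 50% inhibition at 10 µM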
Sequence of Matrix metalloproteinase-9 (P14780 whole entry): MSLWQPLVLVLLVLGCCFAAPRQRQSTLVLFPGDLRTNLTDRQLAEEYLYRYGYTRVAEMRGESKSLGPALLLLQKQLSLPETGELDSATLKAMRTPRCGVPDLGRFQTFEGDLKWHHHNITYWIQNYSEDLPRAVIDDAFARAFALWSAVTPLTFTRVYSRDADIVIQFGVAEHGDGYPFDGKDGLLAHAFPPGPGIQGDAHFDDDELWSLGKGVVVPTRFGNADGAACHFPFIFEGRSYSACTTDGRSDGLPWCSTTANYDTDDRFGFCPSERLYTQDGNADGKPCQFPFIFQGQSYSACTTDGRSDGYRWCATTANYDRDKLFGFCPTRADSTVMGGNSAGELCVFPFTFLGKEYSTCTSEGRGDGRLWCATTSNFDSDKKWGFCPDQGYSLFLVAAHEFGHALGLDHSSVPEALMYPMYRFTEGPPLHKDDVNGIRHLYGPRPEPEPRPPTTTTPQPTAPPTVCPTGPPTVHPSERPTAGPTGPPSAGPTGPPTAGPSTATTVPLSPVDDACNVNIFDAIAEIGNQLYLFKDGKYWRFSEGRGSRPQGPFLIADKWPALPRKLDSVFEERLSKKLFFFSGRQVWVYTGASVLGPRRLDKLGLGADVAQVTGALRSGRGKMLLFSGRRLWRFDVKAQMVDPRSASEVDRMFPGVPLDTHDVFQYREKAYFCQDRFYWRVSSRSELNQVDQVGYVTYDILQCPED

[4] = target: T1, Cysteinyl leukotriene receptor 1 (Homo sapiens, UniProt Q9Y271); assay type: cell membranes, CHO-K1, Membrane; details: cho-k1; also: in other assays of this panel Not Active means under 50% inhibition at 10 µM
T1 sequence (Q9Y271 whole entry): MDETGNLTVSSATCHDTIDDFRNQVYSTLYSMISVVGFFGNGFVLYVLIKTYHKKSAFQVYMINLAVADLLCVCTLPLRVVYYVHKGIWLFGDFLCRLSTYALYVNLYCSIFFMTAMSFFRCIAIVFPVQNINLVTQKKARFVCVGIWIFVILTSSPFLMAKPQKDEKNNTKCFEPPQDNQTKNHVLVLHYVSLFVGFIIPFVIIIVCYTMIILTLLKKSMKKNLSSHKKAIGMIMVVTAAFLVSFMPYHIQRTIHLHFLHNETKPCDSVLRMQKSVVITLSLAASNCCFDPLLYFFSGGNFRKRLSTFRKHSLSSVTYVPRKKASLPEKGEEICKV

[5] = target: Kappa-type opioid receptor (Homo sapiens, UniProt P41145); assay: DRUGMATRIX: Opiate kappa (OP2, KOP) radioligand binding (ligand: [3H] Diprenorphine); assay type: cell membranes, HEK293, Membrane; details: hek293; Not Active = under 50% inhibition at 10 µM
Sequence of Kappa-type opioid receptor (P41145 whole entry): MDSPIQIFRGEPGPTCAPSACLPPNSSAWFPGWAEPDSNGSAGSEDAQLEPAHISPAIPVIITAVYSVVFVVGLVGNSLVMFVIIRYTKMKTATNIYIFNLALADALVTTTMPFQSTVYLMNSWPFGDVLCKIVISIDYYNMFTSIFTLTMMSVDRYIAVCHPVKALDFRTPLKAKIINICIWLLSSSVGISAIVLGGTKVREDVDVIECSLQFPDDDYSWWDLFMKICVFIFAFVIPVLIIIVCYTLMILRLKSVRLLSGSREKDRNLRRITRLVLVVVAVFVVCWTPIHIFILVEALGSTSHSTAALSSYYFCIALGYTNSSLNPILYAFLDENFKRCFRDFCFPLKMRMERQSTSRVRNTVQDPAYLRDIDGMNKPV

[6] = target: Mitogen-activated protein kinase 3 (Homo sapiens, UniProt P27361); assay: DRUGMATRIX: Protein Serine/Threonine Kinase, ERK1 enzyme inhibition (substrate: Myelin Basic Protein); set-up: species or system Escherichia coli; details: Not Active = under 50% inhibition at 10 µM
Sequence of Mitogen-activated protein kinase 3 (P27361 whole entry): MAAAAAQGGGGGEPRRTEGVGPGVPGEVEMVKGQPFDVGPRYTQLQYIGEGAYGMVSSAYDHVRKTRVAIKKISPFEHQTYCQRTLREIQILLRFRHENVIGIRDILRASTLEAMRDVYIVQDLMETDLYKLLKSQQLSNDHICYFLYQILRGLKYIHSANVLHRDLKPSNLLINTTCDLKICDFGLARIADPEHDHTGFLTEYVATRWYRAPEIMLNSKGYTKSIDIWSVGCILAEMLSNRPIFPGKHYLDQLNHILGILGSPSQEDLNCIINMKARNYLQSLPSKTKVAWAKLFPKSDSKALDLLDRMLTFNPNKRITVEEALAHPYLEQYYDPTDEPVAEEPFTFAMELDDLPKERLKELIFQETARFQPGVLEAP

Estrogen receptor = target: T2, Estrogen receptor (Homo sapiens, UniProt P03372); details: sf9; also: in other assays of this panel Not Active means under 50% inhibition at 10 µM
T2 sequence (P03372 whole entry): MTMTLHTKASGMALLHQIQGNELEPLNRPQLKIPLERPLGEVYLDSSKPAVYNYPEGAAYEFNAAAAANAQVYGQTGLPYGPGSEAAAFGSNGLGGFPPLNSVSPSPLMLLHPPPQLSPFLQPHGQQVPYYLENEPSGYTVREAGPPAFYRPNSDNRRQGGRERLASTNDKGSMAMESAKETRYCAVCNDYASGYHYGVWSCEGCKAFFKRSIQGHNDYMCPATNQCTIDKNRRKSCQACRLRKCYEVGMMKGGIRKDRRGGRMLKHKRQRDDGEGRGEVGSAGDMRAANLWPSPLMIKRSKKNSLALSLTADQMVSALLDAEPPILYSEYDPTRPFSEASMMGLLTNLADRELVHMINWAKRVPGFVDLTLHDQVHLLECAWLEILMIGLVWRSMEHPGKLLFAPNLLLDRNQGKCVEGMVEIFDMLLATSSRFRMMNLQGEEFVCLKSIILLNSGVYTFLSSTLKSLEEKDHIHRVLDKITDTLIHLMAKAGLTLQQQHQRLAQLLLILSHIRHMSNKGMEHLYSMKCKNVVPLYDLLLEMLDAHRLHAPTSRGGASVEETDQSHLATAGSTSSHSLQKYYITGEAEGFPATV

[7] = target: T3, Cholecystokinin receptor type A (Homo sapiens, UniProt P32238); assay type: cell membranes, Membrane; details: 1321-n1; also: in other assays of this panel Not Active means under 50% inhibition at 10 µM
T3 sequence (P32238 whole entry): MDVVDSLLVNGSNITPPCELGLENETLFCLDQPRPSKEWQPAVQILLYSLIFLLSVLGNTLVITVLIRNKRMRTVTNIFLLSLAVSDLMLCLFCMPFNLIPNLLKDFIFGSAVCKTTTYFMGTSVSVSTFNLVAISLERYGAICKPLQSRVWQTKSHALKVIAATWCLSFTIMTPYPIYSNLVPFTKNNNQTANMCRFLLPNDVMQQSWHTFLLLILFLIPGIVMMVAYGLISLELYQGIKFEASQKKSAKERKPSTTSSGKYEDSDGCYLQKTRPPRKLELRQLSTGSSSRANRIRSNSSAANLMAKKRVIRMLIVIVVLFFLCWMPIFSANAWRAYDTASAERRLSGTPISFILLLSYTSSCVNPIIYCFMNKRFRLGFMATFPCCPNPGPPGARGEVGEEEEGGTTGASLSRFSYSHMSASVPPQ

[8] = DRUGMATRIX: Sigma2 radioligand binding (ligand: [3H] Ifenprodil); assay type: cell membranes, Rattus norvegicus, Wistar, Brain, Membrane; details: Not Active = under 50% inhibition at 10 µM
[9] = DRUGMATRIX: Interleukin IL-1 radioligand binding (ligand: [125I] interleukin 1beta); assay type: cell membranes, Membrane; details: nih3t3; Not Active = under 50% inhibition at 10 µM
[10] = target: T4, 5-hydroxytryptamine receptor 2C (Homo sapiens, UniProt P28335); assay: DRUGMATRIX: Serotonin (5-Hydroxytryptamine) 5-HT2C radioligand binding (ligand: [3H] Mesulergine); assay type: cell membranes, CHO-K1, Membrane; details: Not Active = under 50% inhibition at 10 µM
T4 sequence (P28335 whole entry): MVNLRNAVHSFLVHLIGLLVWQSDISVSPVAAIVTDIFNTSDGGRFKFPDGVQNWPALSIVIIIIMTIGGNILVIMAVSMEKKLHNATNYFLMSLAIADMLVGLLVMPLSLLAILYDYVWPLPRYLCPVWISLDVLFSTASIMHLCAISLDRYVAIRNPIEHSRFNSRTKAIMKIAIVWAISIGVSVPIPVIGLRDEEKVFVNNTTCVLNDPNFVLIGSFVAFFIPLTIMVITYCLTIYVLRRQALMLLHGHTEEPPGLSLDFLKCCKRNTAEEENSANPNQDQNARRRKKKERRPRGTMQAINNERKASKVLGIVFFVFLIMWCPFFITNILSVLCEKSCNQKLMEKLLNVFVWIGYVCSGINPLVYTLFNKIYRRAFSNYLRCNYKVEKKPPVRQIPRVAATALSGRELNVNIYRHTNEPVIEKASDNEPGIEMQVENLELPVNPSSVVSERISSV

Cytochrome P450 3A4 = Cytochrome P450 3A4 (Homo sapiens, UniProt P08684); details: bti-tn-5b1-4; also: in other assays of this panel Not Active means under 50% inhibition at 10 µM
Sequence of Cytochrome P450 3A4 (P08684 whole entry): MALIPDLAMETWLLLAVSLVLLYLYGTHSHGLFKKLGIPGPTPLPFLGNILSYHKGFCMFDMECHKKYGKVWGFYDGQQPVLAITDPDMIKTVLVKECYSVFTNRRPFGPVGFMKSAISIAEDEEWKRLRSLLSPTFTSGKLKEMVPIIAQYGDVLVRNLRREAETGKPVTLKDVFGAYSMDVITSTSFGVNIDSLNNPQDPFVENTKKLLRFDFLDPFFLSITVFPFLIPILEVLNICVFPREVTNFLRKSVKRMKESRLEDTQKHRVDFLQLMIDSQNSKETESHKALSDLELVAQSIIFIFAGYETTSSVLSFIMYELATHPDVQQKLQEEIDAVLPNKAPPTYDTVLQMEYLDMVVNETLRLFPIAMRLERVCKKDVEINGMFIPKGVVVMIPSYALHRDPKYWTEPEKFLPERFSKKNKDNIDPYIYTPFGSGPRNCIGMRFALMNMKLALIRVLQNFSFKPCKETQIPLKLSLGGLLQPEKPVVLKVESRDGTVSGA

SMILES	IC50 [1]	Ki [1]	IC50 (Melanocortin receptor 4)	IC50 (Vasopressin V1a receptor)	IC50 [2]	Ki [2]	IC50 [3]	IC50 [4]	IC50 [5]	IC50 [6]	IC50 (Estrogen receptor)	IC50 [7]	IC50 [8]	Ki [8]	IC50 [9]	Ki [9]	IC50 ([10]; cho-k1)	IC50 (Cytochrome P450 3A4)	Ki (Cytochrome P450 3A4)	other results
CC[C@H](C)[C@H](N)C1=N[C@H](C(=O)N[C@@H](CC(C)C)C(=O)N[C@H](CCC(=O)O)C(=O)N[C@H](C(=O)N[C@H]2CCCCNC(=O)[C@H](CC(N)=O)NC(=O)[C@@H](CC(=O)O)NC(=O)[C@H](Cc3cnc[nH]3)NC(=O)[C@@H](Cc3ccccc3)NC(=O)[C@H]([C@@H](C)CC)NC(=O)[C@@H](CCCN)NC2=O)[C@@H](C)CC)CS1 [BACITRACIN] ({Ileψ(thiazoline)Cys}-L[dE]IK[dOrn]I[dF]H[dD]N; lactam 4-C)	Not Active	Not Active	Not Active	Not Active	Not Active	Not Active	Not Active	Not Active	Not Active	Not Active	Not Active	Not Active	Not Active	Not Active	Not Active	Not Active	Not Active	Not Active	Not Active	–
OCc1ccccc1 [BENZYL ALCOHOL]	Not Active	Not Active	Not Active	Not Active	Not Active	Not Active	Not Active	Not Active	Not Active	Not Active	Not Active	Not Active	Not Active	Not Active	Not Active	Not Active	Not Active	Not Active	Not Active	–
CC(C)(Oc1ccc(CCNC(=O)c2ccc(Cl)cc2)cc1)C(=O)O [BEZAFIBRATE]	Not Active	Not Active	Not Active	Not Active	Not Active	Not Active	Not Active	Not Active	Not Active	Not Active	Not Active	Not Active	Not Active	Not Active	Not Active	Not Active	Not Active	Not Active	Not Active	–
Oc1c(Cl)cc(Cl)cc1Sc1cc(Cl)cc(Cl)c1O [BITHIONOL]	Not Active	Not Active	Not Active	Not Active	Not Active	Not Active	Not Active	Not Active	Not Active	Not Active	Not Active	Not Active	Not Active	Not Active	Not Active	Not Active	–	Not Active	Not Active	IC50 ([10]; read-out: IC50): 8.78 µM; Ki ([10]; read-out: Ki): 4.6 µM
Brc1ccccc1 [BROMOBENZENE]	Not Active	Not Active	Not Active	Not Active	Not Active	Not Active	Not Active	Not Active	Not Active	Not Active	Not Active	Not Active	Not Active	Not Active	Not Active	Not Active	Not Active	Not Active	Not Active	–
CC[C@@]1(O)C(=O)OCc2c1cc1n(c2=O)Cc2cc3ccccc3nc2-1 [CAMPTOTHECIN]	Not Active	Not Active	Not Active	Not Active	Not Active	Not Active	Not Active	Not Active	Not Active	Not Active	Not Active	Not Active	Not Active	Not Active	Not Active	Not Active	Not Active	Not Active	Not Active	–
COCc1c(C(C)C)nc(C(C)C)c(/C=C/[C@@H](O)C[C@@H](O)CC(=O)O)c1-c1ccc(F)cc1 [CERIVASTATIN]	Not Active	Not Active	Not Active	Not Active	Not Active	Not Active	Not Active	Not Active	Not Active	Not Active	Not Active	Not Active	Not Active	Not Active	Not Active	Not Active	Not Active	Not Active	Not Active	–
